{
  "source": "patent US20200352912A1",
  "about": "“ANTIMICROBIAL COMPOSITIONS AND METHODS OF USING THE SAME” (The Board Of Supervisors Of Louisiana State University And …, priority 2018, published 2020)",
  "key": {"EP2": {"target": "EP2 (Homo sapiens, UniProt P43116)", "sequence (P43116 whole entry)": "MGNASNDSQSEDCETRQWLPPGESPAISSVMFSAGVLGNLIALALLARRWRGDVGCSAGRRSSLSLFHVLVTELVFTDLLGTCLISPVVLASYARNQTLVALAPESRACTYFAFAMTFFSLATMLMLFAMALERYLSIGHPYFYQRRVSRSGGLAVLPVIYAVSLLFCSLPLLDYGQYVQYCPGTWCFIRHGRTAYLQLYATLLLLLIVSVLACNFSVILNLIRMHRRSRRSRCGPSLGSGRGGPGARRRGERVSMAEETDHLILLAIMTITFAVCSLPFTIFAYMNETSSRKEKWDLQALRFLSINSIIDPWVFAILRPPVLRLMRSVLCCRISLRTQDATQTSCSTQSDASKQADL", "details": "cited from earlier work"}, "S. aureus [1]": {"test_system": "S. aureus", "assay": "cytoplasmic leakage assay (OD260)", "assay_type": "cell-based, Staphylococcus aureus", "details": "50 μg/ml", "method": "S. aureus was grown shaking at 37° C. in PBS alone, with 50 μg/ml L-161, 982 or with 4 μg/ml Chlorhexidine (positive control). The appearance of nucleic acid in culture supernatants was measured by OD260 at the indicated times. Data are expressed as change in absorbance at 260 nm compared to control (AA260). Data presented is cumulative of two independent experiments.\nCytoplasmic leakage assay. Cytoplasmic leakage assays were performed as previously described with modifications (11). Briefly, S. aureus was cultured to mid-log phase in TSB with shaking at 37° C. Bacteria were then harvested and resuspended in PBS to a concentration of ˜108/ml. Cultures were treated with L-161,982 (50 μg/ml) or Chlorhexidine (4 μg/ml), a positive control, and incubated at 37° C. with shaking. Culture supernatants were monitored over time for cytoplasmic leakage via OD260 measurements using a spectrophotometer (Biomate 3S, Thermo Scientific). For this, aliquots were removed at 0.5, 1, 2, and 3 hours and centrifuged for 5 min at 10,000×g at room temperature to remove cellular debris before taking OD260 measurements. Negative control cultures containing no drug were used to calculate change in absorbance (AA260) at each time point."}, "S. epidermidis": {"test_system": "S. epidermidis", "assay": "spectrum of activity, bacterial growth", "assay_type": "cell-based", "details": "50 μg/ml, 6 h", "method": "(§1) Bacterial growth was monitored for 6 h in medium alone or supplemented with 50 μg/ml of L-161, 982. Data shown is representative of three independent experiments.\n(§2) Strains and growth conditions. The methicillin-resistant S. aureus strain NRS383 used in all experiments was obtained from the Network on Antimicrobial Resistance in S. aureus (NARSA) data bank. NRS383 is positive for the toxic shock syndrome toxin (tst) and 6-toxin genes. SJ-MRSA 6 and SJ-SA5 are methicillin-resistant (MRSA) and methicillin-sensitive (MSSA) clinical S. aureus strains respectively isolated from a patient's catheter. Other bacterial species used in this study include Escherichia coli (ATCC 25922, clinical isolate), S. epidermidis (ATCC 12228), Klebsiella pneumonia (ATCC 43816), Enterococcus faecalis (ATCC 51299, clinical isolate), and Streptococcus mutans (UA159, 12). S. mutans strain was maintained in brain heart infusion (BHI) broth while the other bacterial species were maintained in Luria-Bertani broth. Frozen stocks were obtained at −80° C. and streaked onto agar plates at 37° C. prior to use. A single colony was transferred to 10 ml of culture broth and shaken at 37° C. overnight. On the following day, the overnight culture was diluted 1:100 in fresh growth medium and shaken at 37° C. for 3 h to obtain cells in mid-log growth phase. S. mutans cultures were grown without agitation in the presence of 5% CO2.\n(§3) The spectrum of activity of L-161, 982 was investigated by testing several Gram-positive and Gram-negative bacteria."}, "K. pneumoniae": {"test_system": "K. pneumoniae", "assay": "spectrum of activity, bacterial growth", "assay_type": "cell-based", "details": "50 μg/ml, 6 h", "method": "as §1, §2, §3"}, "Streptococcus mutans": {"test_system": "Streptococcus mutans", "assay": "spectrum of activity, bacterial growth", "assay_type": "cell-based", "details": "50 μg/ml, 6 h", "method": "as §1, §2, §3"}, "E. faecium": {"test_system": "E. faecium", "assay": "spectrum of activity, bacterial growth", "assay_type": "cell-based", "details": "50 μg/ml, 6 h", "method": "as §1, §2, §3"}, "MRSA": {"test_system": "MRSA", "assay": "checkerboard broth microdilution synergy test with oxacillin", "assay_type": "cell-based, Staphylococcus aureus", "details": "combination with oxacillin", "method": "Due to the newfound antimicrobial activity of L-161, 982 against S. aureus, the checkerboard method (14) with the broth microdilution method, was used to test for synergy with oxacillin, a drug similar to methicillin used more commonly in the clinical setting. Synergy was determined using the fractional inhibitory concentration index (FICI) method (14, 15). With this method, the MIC of the antibiotic compound in combination is divided by the MIC of the compound alone, giving the fractional contribution of each drug component in combination. Quotients for all compounds in combination are summed and drug interactions scored using the formula:\nFICI=((MIC AcombA+B)/MICA)+((MIC BcombA+B)/MICB)\nThe stock solutions and serial twofold dilutions of oxacillin ranged from 8× the MIC to 32× below the MIC and that of L-161, 982 ranged from 8× the MIC to 2000× below the MIC. Oxacillin was serially diluted along the ordinate, while L-161, 982 was diluted along the abscissa. The resulting checkerboard contained each combination of two drugs, with wells that contain the highest concentration of each antibiotic at opposite corners. Each microtiter well was inoculated with 1×10^5 CFU. The plates were incubated at 37° C. for 24 h and the OD600 measured using a microplate spectrophotometer. […]"}, "S. aureus [2]": {"test_system": "S. aureus", "assay": "ATP detection assay (BacTiter-Glo)", "assay_type": "cell-based, Staphylococcus aureus", "details": "12.5-200 μg/ml, 5 h", "method": "S. aureus was incubated with various concentrations of L-161,982 in a 96-well plate in triplicate for 5 h at 37° C. ATP production was measured in samples normalized to viable cell number using the BacTiter-Glo™ Assay (Promega) and measuring luminescence. Background luminescence from media alone samples was subtracted from experimental samples. Results represent the means+/−standard deviation. Data shown are representative of two independent experiments. ** p<0.01; *** p<0.001 control vs drug-treated.\nATP detection assay. S. aureus was diluted 100-fold in 10 ml of fresh Mueller Hinton II broth which was used as the inoculum. The inoculum was incubated with various concentrations of L-161,982 (12.5-200 μg/ml) in a 96-well plate in triplicate for 5 h at 37° C. After incubation, cells L-161,982 were stained with LIVE/DEAD Baclight bacterial viability stain (Invitrogen) and viable cells were counted. Samples were normalized to viable cell number before transferring to an opaque-walled 96-well plate. An equal volume of BacTiter-Glo™ Reagent (Promega) was added. The plate was allowed to develop for 5 min at room temperature. Luminescence was quantified using a BioTek Synergy 2 plate reader. A media alone control was used to detect background luminescence."}},
  "data": [
    {"smiles": "CCCCc1nn(-c2ccccc2C(F)(F)F)c(=O)n1Cc1ccc(-c2ccccc2S(=O)(=O)NC(=O)c2sccc2C)cc1", "note": "[L-161, 982, N-[[4′-[[3-Butyl-1,5-dihydro-5-oxo-1-[2-(trifluoromethyl)phenyl]-4H-1,2,4-triazol-4-yl]methyl][1,1′-biphenyl]-2-yl]sulfonyl]-3-methyl-2-thiophenecarboxamide]", "values": [
      {"measurement": "Ki", "setting": "EP2", "result": 23, "unit": "µM"},
      {"measurement": "OD260 values of culture supernatants", "setting": "S. aureus [1]", "result": "did not increase"},
      {"measurement": "growth inhibitory activity", "setting": "S. epidermidis", "result": "restricted to Gram-positive bacteria that included S. epidermidis and Streptococcus mutans"},
      {"measurement": "growth inhibitory activity", "setting": "K. pneumoniae", "result": "No inhibitory effects"},
      {"measurement": "growth inhibitory activity", "setting": "Streptococcus mutans", "result": "restricted to Gram-positive bacteria that included S. epidermidis and Streptococcus mutans"},
      {"measurement": "growth inhibitory activity", "setting": "E. faecium", "result": "No inhibitory effects"},
      {"measurement": "fractional inhibitory concentration (FIC) index", "setting": "MRSA", "result": 0.563},
      {"measurement": "ATP production", "setting": "S. aureus [2]", "result": "significantly inhibited ATP production"}
    ]}
  ]
}
